The values below come from the supplement of paper PMC10307832.

Experiment in all cases: relative viability (nuclei count vs DMSO), 5 days (fraction); higher = more cells survive
Compound in the experiment “CX-5461 + Navitoclax”: Cc1cnc(CNC(=O)c2c(=O)c3ccc(N4CCCN(C)CC4)nc3n3c2sc2ccccc23)cn1 [CX-5461] + CC1(C)CCC(c2ccc(Cl)cc2)=C(CN2CCN(c3ccc(C(=O)NS(=O)(=O)c4ccc(N[C@H](CCN5CCOCC5)CSc5ccccc5)c(S(=O)(=O)C(F)(F)F)c4)cc3)CC2)C1 [Navitoclax] (partner 0.5 µM)
An outline of the steps: (§1)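 Values are medians from duplicate plates. Each reflects relative viability, defined as the nuclei count of treated wells over that of vehicle wells. Lung cancer cell lines in 1536-well plates were pin-tool dosed one day after seeding with one drug alone or with a fixed anchor-drug dose plus five library-drug doses (not always all listed) in √10 steps, then fixed, stained and imaged at 4× after 5 days.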

Compound in the experiment “CX-5461 + Palbociclib”: Cc1cnc(CNC(=O)c2c(=O)c3ccc(N4CCCN(C)CC4)nc3n3c2sc2ccccc23)cn1 [CX-5461] + CC(=O)c1c(C)c2cnc(Nc3ccc(N4CCNCC4)cn3)nc2n(C2CCCC2)c1=O [Palbociclib] (partner 0.5 µM)
Put shortly: as §1

Compound in the experiment “CX-5461 + Linsitinib”: Cc1cnc(CNC(=O)c2c(=O)c3ccc(N4CCCN(C)CC4)nc3n3c2sc2ccccc23)cn1 [CX-5461] + C[C@]1(O)C[C@@H](c2nc(-c3ccc4ccc(-c5ccccc5)nc4c3)c3c(N)nccn32)C1 [Linsitinib] (partner 1 µM)
Put shortly:
as §1

Compound in the experiment “CX-5461 + Trametinib”: Cc1cnc(CNC(=O)c2c(=O)c3ccc(N4CCCN(C)CC4)nc3n3c2sc2ccccc23)cn1 [CX-5461] + CC(=O)Nc1cccc(-n2c(=O)n(C3CC3)c(=O)c3c(Nc4ccc(I)cc4F)n(C)c(=O)c(C)c32)c1 [Trametinib] (partner 0.02 µM)
An outline of the steps:
as §1

With NCI-H2023, the relative viability in the experiment with CX-5461 + Navitoclax (first compound 0.01 µM) worked out at 1.01; with CX-5461 + Navitoclax (first compound 0.03162 µM), 1.03; with CX-5461 + Navitoclax (first compound 0.3162 µM) it was 0.908; with CX-5461 + Navitoclax (first compound 1 µM) it was 0.152; in the experiment with CX-5461 + Palbociclib (first compound 0.01 µM) it was 0.413; with CX-5461 + Palbociclib (first compound 0.03162 µM), 0.373. In addition, the relative viability stood at 0.309 with CX-5461 + Palbociclib (first compound 0.3162 µM); 0.0908 with CX-5461 + Palbociclib (first compound 1 µM); 0.661 with CX-5461 + Linsitinib (first compound 0.01 µM); 0.744 with CX-5461 + Linsitinib (first compound 0.03162 µM); 0.599 with CX-5461 + Linsitinib (first compound 0.3162 µM); 0.162 with CX-5461 + Linsitinib (first compound 1 µM). In addition, the relative viability was 0.54 with CX-5461 + Trametinib (first compound 0.01 µM), 0.564 with CX-5461 + Trametinib (first compound 0.03162 µM), 0.491 in the experiment with CX-5461 + Trametinib (first compound 0.3162 µM) and 0.115 with CX-5461 + Trametinib (first compound 1 µM).

For NCI-H2085, the relative viability with CX-5461 + Navitoclax (first compound 0.01 µM) was determined as 1.21; with CX-5461 + Navitoclax (first compound 0.03162 µM), 1.16; in the experiment with CX-5461 + Navitoclax (first compound 0.1 µM) it was 1.02; with CX-5461 + Navitoclax (first compound 0.3162 µM), 1.16; with CX-5461 + Navitoclax (first compound 1 µM) it was 1.11; with CX-5461 + Palbociclib (first compound 0.01 µM) it was 0.453. The relative viability with CX-5461 + Palbociclib (first compound 0.03162 µM) turned out to be 0.466; in the experiment with CX-5461 + Palbociclib (first compound 0.1 µM), 0.477; in the experiment with CX-5461 + Palbociclib (first compound 0.3162 µM), 0.454; in the experiment with CX-5461 + Palbociclib (first compound 1 µM), 0.457; with CX-5461 + Linsitinib (first compound 0.01 µM), 0.923; in the experiment with CX-5461 + Linsitinib (first compound 0.03162 µM) it was 1.03. Moreover, the relative viability was 0.911 with CX-5461 + Linsitinib (first compound 0.1 µM); 0.952 in the experiment with CX-5461 + Linsitinib (first compound 0.3162 µM); 0.864 with CX-5461 + Linsitinib (first compound 1 µM); 0.516 with CX-5461 + Trametinib (first compound 0.01 µM); 0.564 in the experiment with CX-5461 + Trametinib (first compound 0.03162 µM); 0.464 with CX-5461 + Trametinib (first compound 0.1 µM). Besides, the figures for the relative viability with CX-5461 + Trametinib (first compound 0.3162 µM) and with CX-5461 + Trametinib (first compound 1 µM) were 0.527 and 0.615, respectively.

Regarding NCI-H2087, the relative viability came to 1.24 with CX-5461 + Navitoclax (first compound 0.01 µM); 1.11 with CX-5461 + Navitoclax (first compound 0.03162 µM); 0.997 with CX-5461 + Navitoclax (first compound 0.1 µM); 1.12 with CX-5461 + Navitoclax (first compound 0.3162 µM); 0.797 in the experiment with CX-5461 + Navitoclax (first compound 1 µM); 0.179 in the experiment with CX-5461 + Palbociclib (first compound 0.01 µM). The relative viability is 0.224 in the experiment with CX-5461 + Palbociclib (first compound 0.03162 µM); 0.258 with CX-5461 + Palbociclib (first compound 0.1 µM); 0.254 in the experiment with CX-5461 + Palbociclib (first compound 0.3162 µM); 0.268 in the experiment with CX-5461 + Palbociclib (first compound 1 µM); 1.03 with CX-5461 + Linsitinib (first compound 0.01 µM); 0.999 with CX-5461 + Linsitinib (first compound 0.03162 µM). The relative viability with CX-5461 + Linsitinib (first compound 0.1 µM) worked out at 0.946; with CX-5461 + Linsitinib (first compound 0.3162 µM) it was 0.811; with CX-5461 + Linsitinib (first compound 1 µM), 1.05; with CX-5461 + Trametinib (first compound 0.01 µM), 0.173; with CX-5461 + Trametinib (first compound 0.03162 µM) it was 0.268; in the experiment with CX-5461 + Trametinib (first compound 0.1 µM), 0.201. Further, the relative viability came out at 0.209 with CX-5461 + Trametinib (first compound 0.3162 µM) and 0.186 in the experiment with CX-5461 + Trametinib (first compound 1 µM).

Regarding NCI-H2126, the relative viability with CX-5461 + Navitoclax (first compound 0.01 µM) stood at 0.873; in the experiment with CX-5461 + Navitoclax (first compound 0.03162 µM), 0.863; in the experiment with CX-5461 + Navitoclax (first compound 0.1 µM), 0.896; in the experiment with CX-5461 + Navitoclax (first compound 0.3162 µM) it was 0.815; in the experiment with CX-5461 + Navitoclax (first compound 1 µM), 0.804; in the experiment with CX-5461 + Palbociclib (first compound 0.01 µM), 0.351. Moreover, the relative viability with CX-5461 + Palbociclib (first compound 0.03162 µM) came out at 0.351; with CX-5461 + Palbociclib (first compound 0.1 µM) it was 0.358; with CX-5461 + Palbociclib (first compound 0.3162 µM), 0.351; in the experiment with CX-5461 + Palbociclib (first compound 1 µM) it was 0.365; with CX-5461 + Linsitinib (first compound 0.01 µM) it was 0.728; with CX-5461 + Linsitinib (first compound 0.03162 µM) it was 0.727. Also, the relative viability with CX-5461 + Linsitinib (first compound 0.1 µM) came out at 0.71; in the experiment with CX-5461 + Linsitinib (first compound 0.3162 µM) it was 0.731; with CX-5461 + Linsitinib (first compound 1 µM), 0.679; with CX-5461 + Trametinib (first compound 0.01 µM), 0.591; with CX-5461 + Trametinib (first compound 0.03162 µM), 0.628; in the experiment with CX-5461 + Trametinib (first compound 0.1 µM) it was 0.591. The figures for the relative viability in the experiment with CX-5461 + Trametinib (first compound 0.3162 µM) and in the experiment with CX-5461 + Trametinib (first compound 1 µM) were 0.557 and 0.526, respectively.
